US20250281740A1, “Electroporation process for delivering a composition comprising at least one peptide of molecular weight ranging from 500 Da to 20 kDa” (L'OREAL, priority 2021, published 2025)

Test: penetration into a human skin sample, topical application versus application combined with electroporation, amount determined by ELISA
Format: in vitro ADME
Description: To test the effect of the device, a sample of human skin is peripherally attached to a support, with the counterelectrode of the electroporation device placed between the inner face of the skin and the support. The electrode of the electroporation device is placed in contact with the outer face of the skin sample. The case of the electroporation device is immobilized by a support. The support is placed on an orbital shaker, so that the electrode moves over the surface of the skin. The device used in this example is a BTX Gemini X2 programmable signal generator (Harvard Instruments). The electroporation treatment time is about 1 minute. It consists of 81 pulses of 10 ms each, with rest periods of 500 ms between the pulses. The polarity chosen is negative, i.e. the electrode is at a negative potential relative to the counterelectrode. On the skin, the voltage between the electrode and the counterelectrode is about 40 V. 50 μl of […] are applied before the device is placed in position (corresponding to 100 μl/cm^2). […] Results The skin is removed from the experimental system and then analysed to determine the amount of N-acetyl-3-trifluoromethyl-phenyl-(valine-glycine) which has penetrated, via an ELISA technique.

## CC(=O)N(c1cccc(C(F)(F)F)c1)C(C(=O)NCC(=O)O)C(C)C (centres unmarked) [N-acetyl-3-trifluoromethyl-phenyl-(valine-glycine)]
Electroporation process (81 pulses of 10 ms, 500 ms rest, about 40 V, negative polarity) compared with topical application of an identical composition, 1% formulations 1 and 2, 100 μl/cm^2, FIG. 4
  amount that has penetrated into the skin: much higher
Electroporation process compared with topical application of an identical composition, FIG. 5
  amount that has penetrated into the skin (FIG. 5): log higher
